Reference: patent publication EP4725956A1, “MODIFIED POLYPEPTIDE AND USE THEREOF IN FIELD OF ANALGESIA” (Nanjing Anji Biotechnology Co., Ltd., priority 2023, dated 2024)
Positions of bridges follow the written chain, without caps; N, C: chain ends. Non-standard residues stand in square brackets, D forms with d. Residues, ends and D or L forms follow the SMILES beside them. No end group written: not given here. Bip = N[C@@H](Cc1ccc(-c2ccccc2)cc1)C(=O)O; Hyp = O=C(O)[C@@H]1C[C@@H](O)CN1; Nle = CCCC[C@H](N)C(=O)O; Orn = NCCC[C@H](N)C(=O)O; Aib = CC(C)(N)C(=O)O

What was measured:
[1] = In vitro plasma stability and predicted half-life (HPLC main peak area, Example 3); format: in vitro ADME; details: human plasma (EDTA anticoagulant), 37°C, sampled up to 24 h, predicted half-life calculated with Winolin
Method: The modified peptides in this study were designed with non-natural amino acid substitutions at certain non-essential positions to enhance peptide stability and improve druggability. Peptides were dissolved in deionized water to 2 mg/mL, then diluted with acetonitrile to 1 mg/mL and filtered through an organic membrane. 200 µL of the filtrate was transferred to an LC vial as the peptide control. 300 µL of human plasma (comprising EDTA as anticoagulant, Nanjing Senbeijia Biotechnology Co., Ltd., Lot No. SBJ-P-HU011-100 mL) was mixed with 300 µL acetonitrile, centrifuged at 4°C and 12,000 rpm for 5 minutes. The supernatant was filtered through an organic membrane, and 200 µL of the filtrate was transferred to an LC vial as the plasma blank control. For peptide samples, 10 mg of peptide was weighed mixed with 5 mL of human plasma and vortexed thoroughly. 300 µL of peptide-containing plasma was mixed with 300 µL acetonitrile, centrifuged at 4°C and 12,000 rpm for 5 minutes, and the supernatant was filtered through an organic membrane. 200 µL of the filtrate was transferred to an LC vial as the 0 min sample. Peptide-containing plasma was incubated in a 37°C water bath, and samples at other time points were collected using the same procedure as the 0 min sample. For peptides AJ003 and AJ003-1, the sampling time points were 0 min, 5 min, 10 min, 20 min, 30 min, 1 h, 2 h, 4 h, 6 h, 10 h, 12 h, and 24 h. For modified peptides AJ003-34, AJ003-35, AJ003-36, AJ003-37, AJ003-38, AJ003-39, AJ003-40, AJ003-41, and AJ003-42, the time points were 0 min, 10 min, 30 min, 1 h, 4 h, 6 h, 10 h, 12 h, and 24 h. All peptide sample series were analyzed by HPLC, recording the changes in main peak areas over plasma incubation time. Predicted in vitro half-lives were calculated using the pharmacokinetic software Winolin. Due to the presence of tautomers, AJ003 peak areas were difficult to integrate accurately over time. AJ003-1 is an analog of AJ003 in which the threonine at position 5 is substituted with D-threonine; its sequence differs from AJ003 by only one amino acid configuration. […] The in vitro plasma half-lives of modified peptides AJ003-34, AJ003-35, AJ003-36, AJ003-37, AJ003-38, AJ003-39, AJ003-40, AJ003-41, and AJ003-42 were 61.9 h, 45.3 h, 65.3 h, 71.0 h, 26.7 h, 43.0 h, 84.0 h, 30.0 h, and 61.4 h, respectively.

[2] = molecular target: α7 nAChR (Homo sapiens, UniProt P36544); test: BLI (biolayer interferometry) affinity of peptides to α7 nAChR; format: binding; set-up: inferred from the 'similar' procedure on NTA sensors; details: NTA sensor, α7 nAChR 20 µg/mL, peptide 1.372-1000 nM in PBS
From the text: BLI is a label-free technology that converts optical interference signals occurring on the surface of BLI biosensors into real-time response signals. By monitoring the molecular binding process in real time, the system determines association rate constants (ka or kon), dissociation rate constants (kd or koff), and initial binding rates, and calculates affinity (KD) by fitting analysis. Here are the specific procedures: NTA sensors (Sartorius) were placed in a pre-wetting tray, which was then positioned in a black 96-well plate with 200 µL PBS per well. The NTA sensors were pre-wetted for at least 15 minutes. The target protein α9 nAChR was diluted in PBS to 5 µg/mL, with 200 µL added per well. Test peptides were dissolved in PBS and serially diluted threefold, with concentrations from high to low as 1000 nM, 333.3 nM, 111.1 nM, 37.04 nM, 12.35 nM, 4.115 nM, and 1.372 nM, with an additional well with PBS only as a zeroconcentration control. After equilibrating the instrument baseline, the NTA sensor was used to immobilize the target protein α9 nAChR. Once immobilization was complete, the baseline was re-equilibrated, followed by a 5-minute association and a 5-minute dissociation phase. Affinity measurements of the test peptides were conducted sequentially using the above procedure. The procedure for measuring peptide affinity to α7 nAChR was similar, except that the α7 nAChR concentration was 20 µg/mL. Tables 2 and 3 show the BLI-determined affinities of alanine-scan peptide analogs with target proteins, which identified sites on the parent peptide suitable for modification. Subsequently, single-site non-natural amino acid substituted peptides were evaluated by BLI for target protein affinity. Finally, multi-site combinatorial modified peptides were measured for affinity by BLI, leading to the selection of high-affinity peptides for further screen and drug development potential. Table 2 Test Results for Affinity of Modified Peptides to α9 nAChR

[3] = molecular target: T1, α9 nAChR (human, UniProt Q9UGM1 23-238); test: BLI, α9 nAChR captured on NTA sensor, peptide 1.372-1000 nM in solution
T1 construct: also called target protein α9 nAChR; α9 nicotinic acetylcholine receptor
T1 sequence (Q9UGM1 23-238 limits assumed): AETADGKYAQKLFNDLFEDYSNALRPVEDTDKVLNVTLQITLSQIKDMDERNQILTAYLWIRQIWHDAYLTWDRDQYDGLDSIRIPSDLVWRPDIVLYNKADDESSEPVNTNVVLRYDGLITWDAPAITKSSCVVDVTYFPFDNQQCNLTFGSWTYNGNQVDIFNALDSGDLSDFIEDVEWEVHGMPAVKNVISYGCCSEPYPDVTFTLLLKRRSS

For CCCC[C@H](NC(=O)[C@@H](NC(=O)[C@H]1CSSC[C@H](NC(=O)[C@H](CO)NC(=O)CN)C(=O)N[C@@H](CO)C(=O)N[C@H]([C@H](C)O)C(=O)N2C[C@H](O)C[C@H]2C(=O)N2C[C@H](O)C[C@H]2C(=O)N[C@@H](C)C(=O)N1)C(C)C)C(=O)N[C@@H](Cc1ccccc1)C(=O)N[C@@H](CCCN)C(N)=O [AJ003-38, GSCS-(D-Thr)-Hyp-Hyp-A-(D-Cys)-V-Nle-F-Orn-NH2 (3,9 disulfide bond)] (H-GSCS[dT][Hyp][Hyp]A[dC]V[Nle]F[Orn]-NH2; disulfide 3-9), the half-life at 2 mg/mL [1] was 26.7 h and the Kd [2] was 187 nM.

Work on CC(C)C[C@H](NC(=O)[C@@H](NC(=O)[C@H]1CSSC[C@H](NC(=O)[C@H](CO)NC(=O)CN)C(=O)N[C@@H](CO)C(=O)N[C@H]([C@H](C)O)C(=O)N2CCC[C@H]2C(=O)N2CCC[C@H]2C(=O)N[C@@H](CO)C(=O)N1)C(C)C)C(=O)N[C@@H](Cc1ccc(O)cc1)C(=O)N[C@@H](CO)C(=O)O [AJ003-1, GSCS-(D-Thr)-PPS-(D-Cys)-VLYS (3,9 disulfide bond)] (H-GSCS[dT]PPS[dC]VLYS-OH; disulfide 3-9) yielded a half-life at 2 mg/mL [1] of about 10.8 h.

For CCCC[C@H](NC(=O)[C@@H](NC(=O)[C@H]1CSSC[C@H](NC(=O)[C@H](CO)NC(=O)CN)C(=O)N[C@@H](CO)C(=O)N[C@H]([C@H](C)O)C(=O)N2C[C@H](O)C[C@H]2C(=O)N2C[C@H](O)C[C@H]2C(=O)NC(C)(C)C(=O)N1)C(C)C)C(=O)N[C@@H](Cc1ccccc1)C(=O)N[C@@H](CCCN)C(N)=O [AJ003-39, GSCS-(D-Thr)-Hyp-Hyp-Aib-(D-Cys)-V-Nle-F-Orn-NH2 (3,9 disulfide bond)] (H-GSCS[dT][Hyp][Hyp][Aib][dC]V[Nle]F[Orn]-NH2; disulfide 3-9), the half-life at 2 mg/mL [1] was 43 h and the Kd [2] was 410 nM.

Work on CCCC[C@H](NC(=O)[C@@H](NC(=O)[C@H]1CSSC[C@H](NC(=O)[C@H](CO)NC(=O)CN)C(=O)N[C@@H](CO)C(=O)N[C@H]([C@H](C)O)C(=O)N2C[C@H](O)C[C@H]2C(=O)N2C[C@H](O)C[C@H]2C(=O)NC(C)(C)C(=O)N1)C(C)C)C(=O)N[C@@H](Cc1c[nH]c2ccccc12)C(=O)N[C@@H](CCCN)C(N)=O [AJ003-42, GSCS-(D-Thr)-Hyp-Hyp-Aib-(D-Cys)-V-Nle-W-Orn-NH2 (3,9 disulfide bond)] (H-GSCS[dT][Hyp][Hyp][Aib][dC]V[Nle]W[Orn]-NH2; disulfide 3-9) yielded a half-life at 2 mg/mL [1] of 61.4 h and a Kd [2] of 21.2 nM.

For CCCC[C@H](NC(=O)[C@@H](NC(=O)[C@H]1CSSC[C@H](NC(=O)[C@H](CO)NC(=O)CN)C(=O)N[C@@H](CO)C(=O)N[C@H]([C@H](C)O)C(=O)N2C[C@H](O)C[C@H]2C(=O)N2C[C@H](O)C[C@H]2C(=O)N[C@@H](C)C(=O)N1)C(C)C)C(=O)N[C@@H](Cc1c[nH]c2ccccc12)C(=O)N[C@@H](CCCN)C(N)=O [AJ003-41, GSCS-(D-Thr)-Hyp-Hyp-A-(D-Cys)-V-Nle-W-Orn-NH2 (3,9 disulfide bond)] (H-GSCS[dT][Hyp][Hyp]A[dC]V[Nle]W[Orn]-NH2; disulfide 3-9), the half-life at 2 mg/mL [1] was 30 h and the Kd [2] was 110 nM.

Molecule CCCC[C@H](NC(=O)[C@@H](NC(=O)[C@H]1CSSC[C@H](NC(=O)[C@H](CO)NC(=O)CN)C(=O)N[C@@H](CO)C(=O)N[C@H]([C@H](C)O)C(=O)N2C[C@H](O)C[C@H]2C(=O)N2C[C@H](O)C[C@H]2C(=O)N[C@@H](CO)C(=O)N1)C(C)C)C(=O)N[C@@H](Cc1ccccc1)C(=O)N[C@@H](CCCN)C(N)=O [AJ003-37, GSCS-(D-Thr)-Hyp-Hyp-S-(D-Cys)-V-Nle-F-Orn-NH2 (3,9 disulfide bond)] (H-GSCS[dT][Hyp][Hyp]S[dC]V[Nle]F[Orn]-NH2; disulfide 3-9) has a half-life at 2 mg/mL [1] of 71 h and a Kd [2] of 68.7 nM.

CCCC[C@H](NC(=O)[C@@H](NC(=O)[C@H]1CSSC[C@H](NC(=O)[C@H](CO)NC(=O)CN)C(=O)N[C@@H](CO)C(=O)N[C@H]([C@H](C)O)C(=O)N2C[C@H](O)C[C@H]2C(=O)N2C[C@H](O)C[C@H]2C(=O)N[C@@H](C)C(=O)N1)C(C)C)C(=O)N[C@@H](Cc1ccc(-c2ccccc2)cc1)C(=O)N[C@@H](CCCN)C(N)=O [AJ003-35, GSCS-(D-Thr)-Hyp-Hyp-A-(D-Cys)-V-Nle-Bip-Orn-NH2 (3,9 disulfide bond)] (H-GSCS[dT][Hyp][Hyp]A[dC]V[Nle][Bip][Orn]-NH2; disulfide 3-9) gave a half-life at 2 mg/mL [1] of 45.3 h and a Kd [2] of 142 nM.

In the case of CC(C)C[C@H](NC(=O)[C@@H](NC(=O)[C@H]1CSSC[C@H](NC(=O)[C@H](CO)NC(=O)CN)C(=O)N[C@@H](CO)C(=O)N[C@H]([C@H](C)O)C(=O)N2CCC[C@H]2C(=O)N2CCC[C@H]2C(=O)N[C@@H](CO)C(=O)N1)C(C)C)C(=O)N[C@@H](Cc1ccc(O)cc1)C(=O)N[C@@H](CO)C(N)=O [AJ003-4, GSCS-(D-Thr)-PPS-(D-Cys)-VLYS-NH2 (3,9 disulfide bond)] (H-GSCS[dT]PPS[dC]VLYS-NH2; disulfide 3-9), the Kd [2] is reported as 339 nM.

B1: AJ003-18 (peptide)
peptide: GSCS[dT]PPA[dC]VLYS
modifications: disulfide 3-9
notes: Printed: GSCS-(D-Thr)-PPA-(D-Cys)-VLYS (3,9 disulfide bond)
In the case of B1, the Kd [3] is reported as 42.6 nM.

B2: AJ003-13 (peptide)
peptide: GACS[dT]PPS[dC]VLYS
modifications: disulfide 3-9
notes: Printed: GACS-(D-Thr)-PPS-(D-Cys)-VLYS (3,9 disulfide bond)
Molecule B2 has a Kd [3] of 6690 nM.

B3: AJ003-14 (peptide)
peptide: GSCA[dT]PPS[dC]VLYS
modifications: disulfide 3-9
notes: Printed: GSCA-(D-Thr)-PPS-(D-Cys)-VLYS (3,9 disulfide bond)
Molecule B3 has a Kd [3] of 13900 nM.

B4: AJ003-21 (peptide)
peptide: GSCS[dT]PPS[dC]VLAS
modifications: disulfide 3-9
notes: Printed: GSCS-(D-Thr)-PPS-(D-Cys)-VLAS (3,9 disulfide bond)
For B4, the Kd [3] was 514 nM.

B5: AJ003-19 (peptide)
peptide: GSCS[dT]PPS[dC]ALYS
modifications: disulfide 3-9
notes: Printed: GSCS-(D-Thr)-PPS-(D-Cys)-ALYS (3,9 disulfide bond)
B5 gave a Kd [3] of 317 nM.

B6: AJ003-22 (peptide)
peptide: GSCS[dT]PPS[dC]VLYA
modifications: disulfide 3-9
notes: Printed: GSCS-(D-Thr)-PPS-(D-Cys)-VLYA (3,9 disulfide bond)
B6 gave a Kd [3] of 163 nM.

B7: AJ003-12 (peptide)
peptide: ASCS[dT]PPS[dC]VLYS
modifications: disulfide 3-9
notes: Printed: ASCS-(D-Thr)-PPS-(D-Cys)-VLYS (3,9 disulfide bond)
In the case of B7, the Kd [3] is reported as 31600 nM.

B8: AJ003-20 (peptide)
peptide: GSCS[dT]PPS[dC]VAYS
modifications: disulfide 3-9
notes: Printed: GSCS-(D-Thr)-PPS-(D-Cys)-VAYS (3,9 disulfide bond)
Molecule B8 has a Kd [3] of 16.3 nM.
